Test results taken from patent publication US7420051B2, “Synthetic process for the manufacture of an ecteinaschidin compound” (Pharma Mar, S.A., priority 2000, dated 2008).

Key:
Format in all cases: cell-based
[1] = test system: A-549 (monolayer culture of a human lung carcinoma); assay: Cytotoxic activity screening, A-549 cells; details: three days of incubation, Crystal Violet, approximate IC50
Protocol: (§1) Cell Cultures. Cells were maintained in logarithmic phase of growth in Eagle's Minimum Essential Medium, with Earle's Balanced Salts, with 2.0 mM L-glutamine, with non-essential amino acids, without sodium bicarbonate (EMEM/neaa); supplemented with 10% Fetal Calf Serum (FCS), 10^−2 M sodium bicarbonate and 0.1 g/l penicillin-G+streptomycin sulfate.
(§2) A simple screening procedure has been carried out to determine and compare the antitumour activity of these compounds, using an adapted form of the method described by Bergeron et al (1984). The tumour cell line employed have been P-388 (suspension culture of a lymphoid neoplasm from DBA/2 mouse), A-549 (monolayer culture of a human lung carcinoma), HT-29 (monolayer culture of a human colon carcinoma) and MEL-28 (monolayer culture of a human melanoma).
(§3) A-549, HT-29 and MEL-28 were seeded into 16 mm wells at 2×10^4 cells per well in 1 ml aliquots of MEM 10FCS containing the indicated concentration of drug. A separate set of cultures without drug was seeded as control growth to ensure that cells remained in exponential phase of growth. All determinations were carried out in duplicate. After three days of incubation at 37° C., 10% CO2 in a 98% humid atmosphere, the wells were stained with 0.1% Crystal Violet. An approximately IC50 was determined by comparing the growth in wells with drug to the growth in wells control.

DU-145 = assay: Cytotoxic activity screening, DU-145 cells
[2] = test system: P-388 (suspension culture of a lymphoid neoplasm from DBA/2 mouse); assay: Cytotoxic activity screening, P-388 cells; details: three days of incubation, approximate IC50
Protocol: as §1, §2
P-388 cell were seeded into 16 mm wells at 1×10^4 cells per well in 1 ml aliquots of MEM 5FCS containing the indicated concentration of drug. A separate set of cultures without drug was seeded as control growth to ensure that cells remained in exponential phase of growth. All determinations were carried out in duplicate.

[3] = test system: MEL-28 (monolayer culture of a human melanoma); assay: Cytotoxic activity screening, MEL-28 cells; details: SK-MEL-28, 72 h, three days of incubation, Crystal Violet, approximate IC50
Protocol: as §1, §2, §3

[4] = test system: HT-29 (monolayer culture of a human colon carcinoma); assay: Cytotoxic activity screening, HT-29 cells; details: three days of incubation, Crystal Violet, approximate IC50
Protocol: as §1, §2, §3

CV-1 = assay: Cytotoxic activity screening, CV-1 cells; details: Cercopithecidae
[5] = Homo sapiens, DU-145, DU-145 cells

Measured: IC50

COc1c(C)cc2c(c1O)[C@@H]1C3Cc4c(OC(C)=O)c(C)c5c(c4[C@H](CNC(=O)[C@@H](C)NC(=O)CC(C)C)N3[C@@H](C#N)[C@H](C2)N1C)OCO5 (some centres unmarked)
0.0001 µM: [1]; Homo sapiens, A549, 72 h | DU-145; [5] | [2]; Mus musculus, P388, 72 h | [3] | [4]; Homo sapiens, HT-29, 72 h

COc1c(C)cc2c(c1O)[C@@H]1C3Cc4c(OC(C)=O)c(C)c5c(c4[C@H](CNC(=O)[C@@H](C)NC(=O)/C=C/c4cccc(C(F)(F)F)c4)N3[C@@H](C#N)[C@H](C2)N1C)OCO5 (some centres unmarked)
0.001 µM: [1]; Homo sapiens, A549, 72 h | DU-145; [5] | [2]; Mus musculus, P388, 72 h | [3] | [4]; Homo sapiens, HT-29, 72 h

COc1c(C)cc2c(c1O)[C@@H]1C3Cc4c(OC(C)=O)c(C)c5c(c4[C@H](CNC(=O)[C@H](C)NC(=O)C(F)(F)F)N3[C@@H](C#N)[C@H](C2)N1C)OCO5 (some centres unmarked)
0.0001 µM: [1]; Homo sapiens, A549, 72 h | DU-145; [5] | [2]; Mus musculus, P388, 72 h | [3] | [4]; Homo sapiens, HT-29, 72 h

C=CCOc1c(C)c2c(c3c1CC1[C@H]4c5c(cc(C)c(OC)c5O)C[C@@H]([C@H](C#N)N1[C@H]3CNC(=O)[C@H](C)NC(=O)C(F)(F)F)N4C)OCO2 (some centres unmarked)
0.001 µM: [1]; Homo sapiens, A549, 72 h | DU-145; [5] | [2]; Mus musculus, P388, 72 h | [3] | [4]; Homo sapiens, HT-29, 72 h

COc1c(C)cc2c(c1O)[C@@H]1C3Cc4c(O)c(C)c5c(c4[C@H](CNC(=O)[C@H](C)NC(=O)C(F)(F)F)N3[C@@H](C#N)[C@H](C2)N1C)OCO5 (some centres unmarked)
0.01 µM: [1]; Homo sapiens, A549, 72 h | DU-145; [5] | [2]; Mus musculus, P388, 72 h | [3] | [4]; Homo sapiens, HT-29, 72 h

COc1c(C)cc2c(c1O)[C@@H]1C3Cc4c(O)c(C)c5c(c4[C@H](CNC(=O)[C@H](C)N)N3[C@@H](C#N)[C@H](C2)N1C)OCO5 (some centres unmarked)
0.9 µM: [1]; Homo sapiens, A549, 72 h | DU-145; [5]
0.8 µM: [3]
0.18 µM: [2]; Mus musculus, P388, 72 h | [4]; Homo sapiens, HT-29, 72 h

COc1c(C)cc2c(c1O)[C@@H]1C3Cc4c(O)c(C)c5c(c4[C@H](CNC(=O)[C@H](C)NC(=S)Nc4ccccc4)N3[C@@H](C#N)[C@H](C2)N1C)OCO5 (some centres unmarked)
0.14 µM: [1]; Homo sapiens, A549, 72 h | DU-145; [5] | [2]; Mus musculus, P388, 72 h | [3] | [4]; Homo sapiens, HT-29, 72 h

COc1c(C)cc2c(c1O)[C@@H]1C3Cc4c(OC(C)=O)c(C)c5c(c4[C@H](CNC(=O)[C@H](C)NC(=O)/C=C/c4ccccc4)N3[C@@H](C#N)[C@H](C2)N1C)OCO5 (some centres unmarked)
0.001 µM: [1]; Homo sapiens, A549, 72 h | [2]; Mus musculus, P388, 72 h | [3]
0.0005 µM: DU-145; [5] | [4]; Homo sapiens, HT-29, 72 h

CCCC(=O)N[C@H](C)C(=O)NC[C@H]1c2c(c(OC(C)=O)c(C)c3c2OCO3)CC2[C@H]3c4c(cc(C)c(OC)c4O)C[C@@H]([C@H](C#N)N21)N3C (some centres unmarked)
0.001 µM: [1]; Homo sapiens, A549, 72 h | DU-145; [5] | [2]; Mus musculus, P388, 72 h
0.0005 µM: [3] | [4]; Homo sapiens, HT-29, 72 h

C/C=C(\OC(C)=O)C1=C(C2=COCO2)[C@H](CNC(=O)/C=C/c2ccccc2)N2C(C1)[C@H]1c3c(cc(C)c(OC)c3O)C[C@@H]([C@@H]2C#N)N1C (some centres unmarked)
0.0001 µM: [1]; Homo sapiens, A549, 72 h | DU-145; [5] | [2]; Mus musculus, P388, 72 h | [3] | [4]; Homo sapiens, HT-29, 72 h

COc1c(C)cc2c(c1O)[C@@H]1C3Cc4c(OC(C)=O)c(C)c5c(c4[C@H](CNC(=O)[C@H](C)NC(=O)CCCl)N3[C@@H](C#N)[C@H](C2)N1C)OCO5 (some centres unmarked)
0.001 µM: [1]; Homo sapiens, A549, 72 h | DU-145; [5] | [2]; Mus musculus, P388, 72 h | [3] | [4]; Homo sapiens, HT-29, 72 h

CCCC(=O)NC[C@H]1c2c(c(OC(C)=O)c(C)c3c2OCO3)CC2[C@H]3c4c(cc(C)c(OC)c4O)C[C@@H]([C@H](C#N)N21)N3C (some centres unmarked)
0.0001 µM: [2]; Mus musculus, P388, 72 h | [3] | [4]; Homo sapiens, HT-29, 72 h
0.0005 µM: [1]; Homo sapiens, A549, 72 h | DU-145; [5]

COc1c(C)cc2c(c1O)[C@@H]1C3Cc4c(OC(C)=O)c(C)c5c(c4[C@H](CNC(=O)/C=C/c4cccc(C(F)(F)F)c4)N3[C@@H](O)[C@H](C2)N1C)OCO5 (some centres unmarked)
0.0001 µM: [1]; Homo sapiens, A549, 72 h | DU-145; [5] | [2]; Mus musculus, P388, 72 h | [3] | [4]; Homo sapiens, HT-29, 72 h

COc1c(C)cc2c(c1O)[C@@H]1C3Cc4c(OC(C)=O)c(C)c5c(c4[C@H](CNC(=O)[C@H](C)NC(=O)C(F)(F)F)N3[C@@H](O)[C@H](C2)N1C)OCO5 (some centres unmarked)
0.0001 µM: [1]; Homo sapiens, A549, 72 h | DU-145; [5] | [2]; Mus musculus, P388, 72 h | [3] | [4]; Homo sapiens, HT-29, 72 h

C=CCOc1c(C)c2c(c3c1CC1[C@H]4c5c(cc(C)c(OC)c5OCOC)C[C@@H]([C@H](C#N)N1[C@H]3CN)N4C)OCO2 (some centres unmarked) [drawing 80]
0.18 µM: [2]; Mus musculus, P388, 72 h
1.8 µM: CV-1

C=CCOc1c(C)c2c(c3c1CC1[C@H]4c5c(cc(C)c(OC)c5OCOC)C[C@@H]([C@H](C#N)N1[C@H]3CN)N4C)OCO2 (some centres unmarked) [drawing 81]
0.2 µM: [1] | DU-145; DU-145 cells | [2] | [3] | [4]
